Among the test systems are KM12 colon; HCT-15 colon; SK-OV-3 ovarian; IGROV1 ovarian; ACHN renal; SK-MEL-2 melanoma; K-562 leukemia; HS 578T breast; A549 NSCLC; NCI-H460 lung.
Assay in all cases: DTP human tumour cell line panel, 48 h

“And” between values parts separate entries of the source, which are not always exact repeats. Equal entries are not always repeated.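 Step 1: Grow cells in 96-well plates. Step 2: Expose to compound for 48 hours at 5 concentrations. Step 3: Interpolate endpoints linearly; if unreached, use highest concentration. The concentration for 50% growth inhibition is given as GI50. At the TGI there is no net growth.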 Bounds are passed on as bounds.

As to `COc1ccc(CN(C)c2ccc(CO)c(Cl)c2)cc1`, the GI50 (as a rule, the concentration at which growth is held to half of that of the control) in the experiment on KM12 colon was 24.6 µM; in the experiment on HCT-15 colon it was 21 µM; in the experiment with SK-OV-3 ovarian, 18.8 µM; in the experiment on IGROV1 ovarian, 0.405 µM; in the experiment on ACHN renal it was 32.6 µM; in the experiment with SK-MEL-2 melanoma it was 8.37 µM. Further, the GI50 was 7.59 µM in the experiment on K-562 leukemia, 38.4 µM in the experiment on HS 578T breast, 5.75 µM in the experiment on A549 NSCLC and 1.04 µM in the experiment with NCI-H460 lung. Moreover, the TGI – broadly, the concentration giving total growth inhibition – in the experiment on KM12 colon is greater than 92.8 µM; with HCT-15 colon it was greater than 100 µM; with SK-OV-3 ovarian it was 88.8 µM; in the experiment with IGROV1 ovarian, 3.3 µM; in the experiment with ACHN renal it was greater than 100 µM; with SK-MEL-2 melanoma, 38.7 µM. The concentration for total growth inhibition (TGI) in the experiment with K-562 leukemia is greater than 100 µM; with HS 578T breast it was greater than 100 µM; in the experiment on A549 NSCLC, 55.6 µM; in the experiment on NCI-H460 lung, 15 µM.

As to `O=C1CC(NC(=O)C(F)(F)F)c2c1csc2Br` (stereo not given), the TGI with KM12 colon, in the experiment with HCT-15 colon, in the experiment on SK-OV-3 ovarian, in the experiment on IGROV1 ovarian, in the experiment on ACHN renal and in the experiment with SK-MEL-2 melanoma was greater than 100 µM throughout. Moreover, the TGI in the experiment on K-562 leukemia, in the experiment with HS 578T breast, in the experiment on A549 NSCLC and with NCI-H460 lung was greater than 100 µM in each case.

Take `CO[C@@H]1/C=C\C=C(/C)C(=O)NC2=CC(=O)C(NCCN(C)C)=C(C[C@@H](C)C[C@@H](OC)[C@@H](O)[C@H](C)/C=C(\C)[C@H]1OC(N)=O)C2=O`: the GI50 was 0.0147 µM in the experiment on KM12 colon; 0.0164 µM in the experiment with IGROV1 ovarian; < 0.0167 µM and 0.0737 µM with ACHN renal; 0.0158 µM with K-562 leukemia; less than 0.0117 µM in the experiment on NCI-H460 lung. Further, the concentration for total growth inhibition (TGI) in the experiment with KM12 colon is 1.02 µM and 0.448 µM; in the experiment on HCT-15 colon, 4.06 µM and 10.9 µM; with SK-OV-3 ovarian, > 37.4 µM and 6.86 µM; with IGROV1 ovarian, 1.85 µM and 1.99 µM; with SK-MEL-2 melanoma, 21.3 µM and 12.3 µM; in the experiment with K-562 leukemia, 3.22 µM and 13.6 µM. Further, the TGI in the experiment with HS 578T breast is 38.3 µM and 76.3 µM; with A549 NSCLC it was 13.3 µM and 18.8 µM; with NCI-H460 lung, 3.61 µM and 3.76 µM.

Turning to `CCC1(CC)C(=O)OC(=O)C1(CC)CC`, the concentration for total growth inhibition (TGI) in the experiment with KM12 colon, in the experiment on HCT-15 colon, in the experiment on SK-OV-3 ovarian, in the experiment with IGROV1 ovarian, in the experiment with ACHN renal and in the experiment with SK-MEL-2 melanoma was greater than 100 µM each time. Besides, the TGI in the experiment on K-562 leukemia, in the experiment with HS 578T breast, with A549 NSCLC and in the experiment with NCI-H460 lung was greater than 100 µM each time.

As for `CCN(CC)CCCC(C)Nc1c2ccc(Cl)cc2nc2ccc(OC)cc12` (stereo not given), the GI50 is 2.39 µM with KM12 colon; 1.61 µM with HCT-15 colon; 2.69 µM in the experiment with SK-OV-3 ovarian; 3.21 µM in the experiment on IGROV1 ovarian; 1.42 µM in the experiment on ACHN renal; 2.46 µM in the experiment on HS 578T breast. In the experiment on NCI-H460 lung, the GI50 was 1.3 µM. For the same compound, the total growth inhibition concentration (TGI) with KM12 colon is 7.83 µM and 5.14 µM; with HCT-15 colon it was 7.18 µM and 5.67 µM; in the experiment on SK-OV-3 ovarian, 10.3 µM and 12.6 µM; in the experiment with IGROV1 ovarian it was 13.2 µM and 5.49 µM; in the experiment with ACHN renal it was 5.15 µM and 9.77 µM; in the experiment with SK-MEL-2 melanoma, 3.17 µM. The total growth inhibition concentration (TGI) in the experiment with K-562 leukemia is 4.16 µM; in the experiment with HS 578T breast it was 8.27 µM and 14.8 µM; in the experiment on A549 NSCLC it was 3.68 µM and 3.64 µM; with NCI-H460 lung it was 3.21 µM and 2.4 µM.

In the case of `CC1=C2[C@@H](CC1)[C@]1(C)O[C@@](C3CCCCC3)(C[C@H]1OC(=O)CO)[C@H]2OC(=O)/C=C/c1ccccc1`, the GI50 with KM12 colon is 8.34 µM; in the experiment with HCT-15 colon, 5.23 µM; in the experiment on SK-OV-3 ovarian, 9.71 µM; in the experiment on IGROV1 ovarian, 18.7 µM; in the experiment with ACHN renal it was 0.0331 µM; in the experiment on SK-MEL-2 melanoma, 11.5 µM. Also, the GI50 in the experiment with K-562 leukemia is 7.14 µM; in the experiment with HS 578T breast, 0.0202 µM; in the experiment with A549 NSCLC, 7.19 µM; with NCI-H460 lung, 6.35 µM. In addition, the TGI turned out to be 24.7 µM with KM12 colon; 15.7 µM with HCT-15 colon; 24.5 µM in the experiment on SK-OV-3 ovarian; 44.1 µM in the experiment with IGROV1 ovarian; 4.25 µM in the experiment on ACHN renal; 27.9 µM with SK-MEL-2 melanoma. The concentration for total growth inhibition (TGI) with K-562 leukemia came to 32.1 µM; in the experiment on HS 578T breast, 0.281 µM; in the experiment on A549 NSCLC, 20.5 µM; with NCI-H460 lung, 17.8 µM.

Turning to `ClCc1cccc(Cn2cnc3c(NC45CC6CC(CC(C6)C4)C5)ncnc32)c1`, the GI50 is 14.6 µM in the experiment on KM12 colon; 20.4 µM in the experiment on HCT-15 colon; 21.1 µM with SK-OV-3 ovarian; 18.3 µM in the experiment with IGROV1 ovarian; 15.4 µM in the experiment on ACHN renal; 16.7 µM with SK-MEL-2 melanoma. In addition, the GI50 with K-562 leukemia is 1.89 µM; with HS 578T breast, 23.4 µM; in the experiment with A549 NSCLC, 21.7 µM; with NCI-H460 lung, 16 µM. In addition, the TGI came out at 30.6 µM with KM12 colon; 47.5 µM with HCT-15 colon; 42.3 µM in the experiment on SK-OV-3 ovarian; 45.8 µM in the experiment on IGROV1 ovarian; 30.5 µM with ACHN renal; 48.1 µM with SK-MEL-2 melanoma. Further, the TGI was 29.4 µM with K-562 leukemia, 68.2 µM in the experiment with HS 578T breast, greater than 60.1 µM with A549 NSCLC and 43 µM in the experiment with NCI-H460 lung.

With `Cn1ccnc1CC(C)(O)c1ccccc1` (stereo not given), the TGI in the experiment with KM12 colon, in the experiment with HCT-15 colon, with SK-OV-3 ovarian, in the experiment on IGROV1 ovarian, with ACHN renal and in the experiment on SK-MEL-2 melanoma was greater than 100 µM in each case. Further, the TGI in the experiment with K-562 leukemia, in the experiment with HS 578T breast, with A549 NSCLC and in the experiment with NCI-H460 lung was greater than 100 µM throughout.

On to `CCOC(=O)c1cc(C#N)c(=O)n(/N=C(\C)c2ccncc2)c1O`, for which the GI50 in the experiment with KM12 colon, with HCT-15 colon, in the experiment on SK-OV-3 ovarian, in the experiment on IGROV1 ovarian, in the experiment on ACHN renal and in the experiment with SK-MEL-2 melanoma was greater than 100 µM each time. The GI50 with K-562 leukemia, in the experiment with HS 578T breast, in the experiment on A549 NSCLC and in the experiment on NCI-H460 lung was greater than 100 µM each time. Besides, the concentration for total growth inhibition (TGI) in the experiment on KM12 colon, in the experiment with HCT-15 colon, with SK-OV-3 ovarian, with IGROV1 ovarian, in the experiment with ACHN renal and in the experiment with SK-MEL-2 melanoma was greater than 100 µM throughout. In addition, the TGI in the experiment with K-562 leukemia, with HS 578T breast, in the experiment with A549 NSCLC and in the experiment with NCI-H460 lung was greater than 100 µM throughout.

With `CC(=O)N[C@H]1C=C[C@@H]2/C=C(C)/C=C/[C@@H](C)[C@H]([C@H](C)[C@H](O)[C@@H](C)NC(C)=O)OC(=O)/C=C/C=C(C)\C=C\[C@]2(C)C1`, the GI50 in the experiment with KM12 colon is 0.0246 µM and 0.0045 µM; with HCT-15 colon, 0.0361 µM and 0.00939 µM; with SK-OV-3 ovarian, 0.0117 µM and 0.0045 µM; in the experiment on IGROV1 ovarian, 0.0215 µM and 0.00532 µM; in the experiment on ACHN renal, 0.0186 µM and 0.0045 µM; in the experiment with SK-MEL-2 melanoma, 5.11 µM. The GI50 in the experiment with K-562 leukemia was 0.0307 µM and 0.00538 µM; with HS 578T breast, 0.0161 µM and 0.0045 µM; in the experiment on NCI-H460 lung it was 0.0045 µM. The TGI was 4.65 µM and > 45 µM with KM12 colon; 4.65 µM and > 45 µM in the experiment on HCT-15 colon; 4.65 µM and > 45 µM in the experiment on SK-OV-3 ovarian; 4.65 µM and > 45 µM in the experiment on IGROV1 ovarian; 4.65 µM and > 45 µM in the experiment on ACHN renal; 17.9 µM with SK-MEL-2 melanoma. Also, the concentration for total growth inhibition (TGI) is 4.65 µM and > 45 µM in the experiment with K-562 leukemia; 4.65 µM and 3.28 µM with HS 578T breast; 4.65 µM and > 45 µM in the experiment with A549 NSCLC; greater than 45 µM in the experiment with NCI-H460 lung.

As to `C[C@]12C[C@H](c3ccccc3)Nc3ccccc3N1C(c1ccccc1)=NO2`, the TGI in the experiment on KM12 colon, in the experiment with HCT-15 colon, in the experiment on SK-OV-3 ovarian, in the experiment with IGROV1 ovarian, with ACHN renal and in the experiment with SK-MEL-2 melanoma was greater than 100 µM throughout. For the same compound, the TGI with K-562 leukemia, with HS 578T breast, in the experiment with A549 NSCLC and in the experiment with NCI-H460 lung was greater than 100 µM throughout.

On to `CC(=O)C(=[N+]=[N-])C(=O)NCC#N`, for which the TGI with KM12 colon, in the experiment on HCT-15 colon, in the experiment with SK-OV-3 ovarian, with IGROV1 ovarian, in the experiment on ACHN renal and with SK-MEL-2 melanoma was greater than 10 µM each time. Further, the TGI in the experiment on K-562 leukemia, in the experiment with HS 578T breast, in the experiment on A549 NSCLC and with NCI-H460 lung was greater than 10 µM in each case.

In the case of `CCN1CCN(C(=O)[C@]23CC[C@@H](C)[C@H](C)[C@@H]2C2=CC[C@@H]4[C@@]5(C)C/C(=C/c6ccncc6)C(=O)C(C)(C)[C@@H]5CC[C@@]4(C)[C@]2(C)CC3)CC1`, the GI50 with KM12 colon is 1.87 µM; in the experiment with HCT-15 colon, 1.65 µM; in the experiment with SK-OV-3 ovarian, 1.83 µM; in the experiment on IGROV1 ovarian, 1.7 µM; in the experiment on ACHN renal, 1.73 µM; with SK-MEL-2 melanoma, 1.91 µM. Moreover, the GI50 is 2.47 µM with K-562 leukemia, 1.81 µM in the experiment on HS 578T breast, 1.78 µM in the experiment on A549 NSCLC and 1.7 µM in the experiment with NCI-H460 lung. For the same compound, the TGI in the experiment on KM12 colon worked out at 3.66 µM; with HCT-15 colon, 3.35 µM; in the experiment on SK-OV-3 ovarian, 3.67 µM; in the experiment with IGROV1 ovarian, 3.36 µM; with ACHN renal, 3.1 µM; with SK-MEL-2 melanoma, 3.84 µM. The total growth inhibition concentration (TGI) with K-562 leukemia amounted to 7.25 µM; in the experiment with HS 578T breast, 4.3 µM; in the experiment on A549 NSCLC it was 3.72 µM; in the experiment on NCI-H460 lung, 3.25 µM.

For the origin of these results see PubChem BioAssay (NCI).
